According to patent US8859549B2, “Potassium channel modulators” (AbbVie, Inc., priority 2011, dated 2014):
pEC50: −log10 of the molar value.

Target: T1, KCNQ 2/3 channels (Homo sapiens, UniProt O43525+O43526)
T1 construct: expressed in transfected cells; host or cells: HEK293
Assay: KCNQ 2/3 channel activation, thallium flux FLIPR assay (BTC-AM dye)
Assay type: cell-based
Conditions: for Emax: HEK293, maximum response relative to the response of 10 μM retigabine (set at 100%), HEK293 KCNQ2/KCNQ3 cells, read-out: % MAX; for pEC50: HEK293 cells stably expressing human KCNQ2 and KCNQ3 subunits, thallium-induced fluorescence, 4 min compound incubation
Method in brief: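 HEK293 cells stably expressing human KCNQ2/KCNQ3 were loaded with BTC-AM (3 μg/mL, 2 h, RT) and preincubated with compound for 4 min in pH 7.3 gluconate buffer containing 0.1 mM ouabain. Flux was triggered by 6 mM TlNO3/10 mM K2SO4 and read for 3 min; EC50 came from summed responses over basal, with maximum relative to 10 μM retigabine (100%).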

| SMILES | Emax | pEC50 |
| --- | --- | --- |
| CC(C)(C)OC(=O)NCc1nn(NC(=O)CC2CC3CCC2C3)c(=O)c2ccccc12 (racemic) [Example 44, (±)-tert-butyl[(3-{[(exo)-bicyclo[2.2.1]hept-2-ylacetyl]amino}-4-oxo-3,4-dihydrophthalazin-1-yl)methyl]carbamate] | 116% | 6.53 |
| O=C(CC1CC2CCC1C2)Nn1nc(Oc2ccccc2)c2ccccc2c1=O (racemic) [Example 39, (±)-2-[(exo)-bicyclo[2.2.1]hept-2-yl]-N-(1-oxo-4-phenoxyphthalazin-2(1H)-yl)acetamide] | 150% | 8.04 |
| O=C(C[C@@H]1C[C@@H]2C=C[C@H]1C2)Nn1nc(-c2cccs2)c2ccccc2c1=O [Example 13, 2-[(1S,2S,4S)-bicyclo[2.2.1]hept-5-en-2-yl]-N-[1-oxo-4-(thiophen-2-yl)phthalazin-2(1H)-yl]acetamide] | 138% | 6.88 |
| O=C(CC1CC2CCC1C2)Nn1nc(Cc2cc[n+]([O-])cc2)c2ccccc2c1=O (racemic) [Example 100, (±)-2-[(exo)-bicyclo[2.2.1]hept-2-yl]-N-{4-[(1-oxidopyridin-4-yl)methyl]-1-oxophthalazin-2(1H)-yl}acetamide] | 53.4% | 6.04 |
| Cc1cc(-c2nn(NC(=O)CC3CC4CCC3C4)c(=O)c3ccccc23)ccn1 (racemic) [Example 50, (±)-2-[(exo)-bicyclo[2.2.1]hept-2-yl]-N-[4-(2-methylpyridin-4-yl)-1-oxophthalazin-2(1H)-yl]acetamide] | 151% | 5.95 |
| O=C(CC1CC2CCC1C2)Nn1nc(Cc2ccc(Cl)nc2)c2ccccc2c1=O (racemic) [Example 30, (±)-2-[(exo)-bicyclo[2.2.1]hept-2-yl]-N-{4-[(6-chloropyridin-3-yl)methyl]-1-oxophthalazin-2(1H)-yl}acetamide] | 122% | 7.23 |
| CC(C(=O)NCC(C)(C)C)c1nn(NC(=O)Cc2ccc(Cl)cc2)c(=O)c2ccccc12 (stereo not shown) [Example 113, 2-(3-{[(4-chlorophenyl)acetyl]amino}-4-oxo-3,4-dihydrophthalazin-1-yl)-N-(2,2-dimethylpropyl)propanamide] | 21.8% | – |
| CC(C)(C)S(=O)(=O)c1nn(NC(=O)Cc2ccc(Cl)cc2)c(=O)c2ccccc12 [Example 201, N-[4-(tert-butylsulfonyl)-1-oxophthalazin-2(1H)-yl]-2-(4-chlorophenyl)acetamide] | 92.3% | 6.13 |
| CC(C)COC(=O)NCc1nn(NC(=O)Cc2ccc(Cl)cc2)c(=O)c2ccccc12 [Example 185, 2-methylpropyl[(3-{[(4-chlorophenyl)acetyl]amino}-4-oxo-3,4-dihydrophthalazin-1-yl)methyl]carbamate] | 44.6% | 5.91 |
| O=C(Cc1ccc(Cl)cc1)Nn1nc(CNS(=O)(=O)C(F)(F)F)c2ccccc2c1=O [Example 79, 2-(4-chlorophenyl)-N-[1-oxo-4-({[(trifluoromethyl)sulfonyl]amino}methyl)phthalazin-2(1H)-yl]acetamide] | 33.6% | 5.04 |
| O=C(Cc1ccc(Cl)cc1)Nn1nc(S(=O)(=O)c2ccc(Br)cc2)c2ccccc2c1=O [Example 199, N-{4-[(4-bromophenyl)sulfonyl]-1-oxophthalazin-2(1H)-yl}-2-(4-chlorophenyl)acetamide] | 79.2% | 7.31 |
| O=C(Cc1ccc(Cl)cc1)Nn1nc(S(=O)(=O)c2ccncc2)c2ccccc2c1=O [Example 203, 2-(4-chlorophenyl)-N-[1-oxo-4-(pyridin-4-ylsulfonyl)phthalazin-2(1H)-yl]acetamide] | 85% | 6.21 |
| O=C(Cc1ccccc1)NCc1nn(NC(=O)Cc2ccc(Cl)cc2)c(=O)c2ccccc12 [Example 86, 2-(4-chlorophenyl)-N-[1-oxo-4-{[(phenylacetyl)amino]methyl}phthalazin-2(1H)-yl]acetamide] | 15.7% | – |
| CC(C)(CC(=O)Nn1nc(-c2ccnc(Cl)c2)c2ccccc2c1=O)c1ccccc1 [Example 48, N-[4-(2-chloropyridin-4-yl)-1-oxophthalazin-2(1H)-yl]-3-methyl-3-phenylbutanamide] | 133% | 6.41 |
| NC(=O)c1cc(-c2nn(NC(=O)CC3CC4CCC3C4)c(=O)c3ccccc23)ccn1 (racemic) [Example 72, (±)-4-(3-{[(exo)-bicyclo[2.2.1]hept-2-ylacetyl]amino}-4-oxo-3,4-dihydrophthalazin-1-yl)pyridine-2-carboxamide] | 13.7% | – |
| CC(C)(C)OC(=O)N1CCN(C(=O)c2nn(NC(=O)CC3CC4CCC3C4)c(=O)c3ccccc23)CC1 (racemic) [Example 98, (±)-tert-butyl 4-[(3-{[(exo)-bicyclo[2.2.1]hept-2-ylacetyl]amino}-4-oxo-3,4-dihydrophthalazin-1-yl)carbonyl]piperazine-1-carboxylate] | 140% | 5.30 |
| CN(C)C(=O)c1nn(NC(=O)CC2CC3CCC2C3)c(=O)c2ccccc12 (racemic) [Example 56, (±)-3-{[(exo)-bicyclo[2.2.1]hept-2-ylacetyl]amino}-N,N-dimethyl-4-oxo-3,4-dihydrophthalazine-1-carboxamide] | 84.9% | – |
| CC(C)(C)OC(=O)c1nn(NC(=O)CC2CC3CCC2C3)c(=O)c2ccccc12 (racemic) [Example 94, (±)-tert-butyl 3-{[(exo)-bicyclo[2.2.1]hept-2-ylacetyl]amino}-4-oxo-3,4-dihydrophthalazine-1-carboxylate] | 201% | 7.12 |

The remaining lines, values ahead:

| Emax | pEC50 | SMILES |
| --- | --- | --- |
| 71.7% | 4.89 | O=C(Cc1ccc(F)cc1)Nn1nc(N2CCOCC2)c2ccccc2c1=O [Example 150, 2-(4-fluorophenyl)-N-[4-(morpholin-4-yl)-1-oxophthalazin-2(1H)-yl]acetamide] |
| 147% | 6.88 | CN(Cc1ccccc1)c1nn(NC(=O)Cc2cc(F)cc(F)c2)c(=O)c2ccccc12 [Example 53, N-{4-[benzyl(methyl)amino]-1-oxophthalazin-2(1H)-yl}-2-(3,5-difluorophenyl)acetamide] |
| 106% | 7.19 | O=C(Cc1cc(F)cc(F)c1)Nn1nc(S(=O)(=O)c2ccc(Br)cc2)c2ccccc2c1=O [Example 202, N-{4-[(4-bromophenyl)sulfonyl]-1-oxophthalazin-2(1H)-yl}-2-(3,5-difluorophenyl)acetamide] |
| 153% | 5.41 | O=C(CC1CCCCC1)Nn1nc(N2CCOCC2)c2ccccc2c1=O [Example 138, 2-cyclohexyl-N-[4-(morpholin-4-yl)-1-oxophthalazin-2(1H)-yl]acetamide] |
| 8.66% | – | NCc1nn(NC(=O)Cc2ccc(Cl)cc2)c(=O)c2ccccc12 [Example 42, N-[4-(aminomethyl)-1-oxophthalazin-2(1H)-yl]-2-(4-chlorophenyl)acetamide] |
| 229% | 7.11 | O=C(CC1CC2CCC1C2)Nn1nc(N2CCSCC2)c2ccccc2c1=O (racemic) [Example 93, (±)-2-[(exo)-bicyclo[2.2.1]hept-2-yl]-N-[1-oxo-4-(thiomorpholin-4-yl)phthalazin-2(1H)-yl]acetamide] |
| 23.6% | – | COc1cccc(CC(=O)Nn2nc(N3CCOCC3)c3ccccc3c2=O)c1OC [Example 169, 2-(2,3-dimethoxyphenyl)-N-[4-(morpholin-4-yl)-1-oxophthalazin-2(1H)-yl]acetamide] |
| 1.17% | – | O=C(Cc1ccccc1Br)Nn1nc(N2CCOCC2)c2ccccc2c1=O [Example 153, 2-(2-bromophenyl)-N-[4-(morpholin-4-yl)-1-oxophthalazin-2(1H)-yl]acetamide] |
| 93.1% | 5.00 | CC(C)(C)OC(=O)NCc1nn(NC(=O)Cc2ccc(F)cc2)c(=O)c2ccccc12 [Example 125, tert-butyl[(3-{[(4-fluorophenyl)acetyl]amino}-4-oxo-3,4-dihydrophthalazin-1-yl)methyl]carbamate] |
| 34% | – | O=C(CC1(O)CCCCC1)Nn1nc(-c2ccnc(Cl)c2)c2ccccc2c1=O [Example 71, N-[4-(2-chloropyridin-4-yl)-1-oxophthalazin-2(1H)-yl]-2-(1-hydroxycyclohexyl)acetamide] |
| 164% | 6.04 | O=C(Cc1ccc(Cl)cc1)Nn1nc(N2CCSCC2)c2ccccc2c1=O [Example 91, 2-(4-chlorophenyl)-N-[1-oxo-4-(thiomorpholin-4-yl)phthalazin-2(1H)-yl]acetamide] |
| 73% | – | O=C(CC1CC2CCC1C2)Nn1nc(C(=O)N2CCOCC2)c2ccccc2c1=O (racemic) [Example 95, (±)-2-[(exo)-bicyclo[2.2.1]hept-2-yl]-N-[4-(morpholin-4-ylcarbonyl)-1-oxophthalazin-2(1H)-yl]acetamide] |
| 32.8% | – | O=C(Cc1cccc([N+](=O)[O-])c1)Nn1nc(N2CCOCC2)c2ccccc2c1=O [Example 156, N-[4-(morpholin-4-yl)-1-oxophthalazin-2(1H)-yl]-2-(3-nitrophenyl)acetamide] |
| 105% | 6.53 | O=C(Cc1ccc(Cl)cc1)Nn1nc(-c2cccs2)c2ccccc2c1=O [Example 11, 2-(4-chlorophenyl)-N-[1-oxo-4-(thiophen-2-yl)phthalazin-2(1H)-yl]acetamide] |
| 64.8% | 6.06 | CCOC(=O)c1nn(NC(=O)Cc2ccc(Cl)cc2)c(=O)c2ccccc12 [Example 63, ethyl 3-{[(4-chlorophenyl)acetyl]amino}-4-oxo-3,4-dihydrophthalazine-1-carboxylate] |
| 130% | 5.35 | O=C(Cc1cc(F)cc(F)c1)Nn1nc(N2CCOCC2)c2ccccc2c1=O [Example 1, 2-(3,5-difluorophenyl)-N-[4-(morpholin-4-yl)-1-oxophthalazin-2(1H)-yl]acetamide] |
